Our source for the Activity values is ChEMBL document CHEMBL2073825, “Ex vivo reversal of chemoresistance by tariquidar (XR9576)” (Anticancer Drugs, 2004).

The target of this series is ATP-dependent translocase ABCB1 (Homo sapiens, UniProt P08183). The experiment in a line: TP_TRANSPORTER: Vinorelbine-induced cytotoxicity in P-gp positive tumor. The series is classed as functional, tissue-based, Neoplasm.
ATP-dependent translocase ABCB1, sequence (P08183 whole entry): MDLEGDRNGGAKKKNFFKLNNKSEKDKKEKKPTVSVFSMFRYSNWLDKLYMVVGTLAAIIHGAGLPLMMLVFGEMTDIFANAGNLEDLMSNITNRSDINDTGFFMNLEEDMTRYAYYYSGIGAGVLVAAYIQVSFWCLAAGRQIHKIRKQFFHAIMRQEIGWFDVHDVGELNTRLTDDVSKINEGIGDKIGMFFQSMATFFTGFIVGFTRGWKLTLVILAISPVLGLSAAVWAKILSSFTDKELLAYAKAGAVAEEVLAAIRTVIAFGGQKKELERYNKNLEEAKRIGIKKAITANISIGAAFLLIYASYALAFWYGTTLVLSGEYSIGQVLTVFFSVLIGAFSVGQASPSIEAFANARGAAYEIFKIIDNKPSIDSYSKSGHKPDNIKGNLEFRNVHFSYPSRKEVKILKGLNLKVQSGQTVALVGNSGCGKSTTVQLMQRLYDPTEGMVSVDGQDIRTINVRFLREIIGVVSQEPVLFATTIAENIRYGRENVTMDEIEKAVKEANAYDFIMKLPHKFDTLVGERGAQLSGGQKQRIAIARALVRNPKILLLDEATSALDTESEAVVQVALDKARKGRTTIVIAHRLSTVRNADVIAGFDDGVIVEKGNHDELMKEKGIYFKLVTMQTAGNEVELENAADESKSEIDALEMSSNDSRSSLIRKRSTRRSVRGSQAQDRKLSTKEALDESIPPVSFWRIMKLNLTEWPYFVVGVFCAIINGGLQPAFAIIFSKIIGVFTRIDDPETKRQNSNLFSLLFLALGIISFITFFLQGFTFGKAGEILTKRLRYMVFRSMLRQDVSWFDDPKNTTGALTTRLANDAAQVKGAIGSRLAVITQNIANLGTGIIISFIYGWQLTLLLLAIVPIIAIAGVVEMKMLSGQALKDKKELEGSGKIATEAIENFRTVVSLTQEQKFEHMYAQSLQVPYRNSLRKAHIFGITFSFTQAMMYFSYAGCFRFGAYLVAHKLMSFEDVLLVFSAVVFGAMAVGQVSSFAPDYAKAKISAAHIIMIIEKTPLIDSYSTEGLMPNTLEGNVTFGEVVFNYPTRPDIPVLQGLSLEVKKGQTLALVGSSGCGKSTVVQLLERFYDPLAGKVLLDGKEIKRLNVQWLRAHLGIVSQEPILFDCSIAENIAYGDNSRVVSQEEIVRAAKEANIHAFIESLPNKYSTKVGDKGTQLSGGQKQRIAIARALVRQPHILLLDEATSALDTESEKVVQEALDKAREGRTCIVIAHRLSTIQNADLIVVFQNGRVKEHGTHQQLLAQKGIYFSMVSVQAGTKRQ

For the compound `COc1cc2c(cc1OC)CN(CCc1ccc(NC(=O)c3cc(OC)c(OC)cc3NC(=O)c3cnc4ccccc4c3)cc1)CC2` [TARIQUIDAR], the Activity result is “inhibitor [+]”.
